Experimental data from ChEMBL document CHEMBL3046894, “Synthesis and Herbicidal Activity of Pyrimidinyl Salicylic and Thiosalicylic Acids” (J Pestic Sci, 1996).
Activity calls are given as the source filed them. The calls are words filed in the database; no cut-off is given here.

Legend:
[1] = tested on: Xanthium strumarium; test: Post-emergence herbicidal activity against Xanthium strumarium (cocklebur) assessed as mortality at 6.3 g a.i/10 a applied 11 days after germination as foliar spray; type: functional; conditions: 264 h
[2] = tested on: Ipomoea lacunosa; test: Post-emergence herbicidal activity against Ipomoea lacunosa assessed as mortality at 6.3 g a.i/10 a applied 11 days after germination as foliar spray; type: functional; conditions: 264 h
[3] = tested on: Abutilon theophrasti; test: Post-emergence herbicidal activity against Abutilon theophrasti (velvetleaf) assessed as mortality at 1.6 g a.i/10 a applied 11 days after germination as foliar spray; type: functional; conditions: 264 h
[4] = tested on: Abutilon theophrasti; test: Post-emergence herbicidal activity against Abutilon theophrasti (velvetleaf) assessed as mortality at 6.3 g a.i/10 a applied 11 days after germination as foliar spray; type: functional; conditions: 264 h
[5] = tested on: Gossypium hirsutum; test: Pre-emergence phytotoxicity against Gossypium hirsutum (cotton) assessed as mortality at 6.3 g a.i/10 a; type: organism-based; conditions: in vivo, other
[6] = tested on: Gossypium hirsutum; test: Pre-emergence phytotoxicity against Gossypium hirsutum (cotton) assessed as mortality at 1.6 g a.i/10 a; type: organism-based; conditions: in vivo, other
[7] = tested on: Glycine max; test: Pre-emergence phytotoxicity against Glycine max (soybean) assessed as mortality at 1.6 g a.i/10 a; type: organism-based; conditions: in vivo, other
[8] = tested on: Glycine max; test: (§1) Pre-emergence phytotoxicity against Glycine max (soybean) assessed as mortality at 6.3 g a.i/10 a; type: organism-based; conditions: in vivo, other
[9] = Pre-emergence phytotoxicity against Zea mays (maize) assessed as mortality at 1.6 g a.i/10 a; type: organism-based; conditions: in vivo, 1.6 g a.i/10 a
[10] = tested on: Gossypium hirsutum; test: (§2) Post-emergence phytotoxicity against Gossypium hirsutum (cotton) assessed as mortality at 1.6 g a.i/10 a applied 11 days after germination as foliar spray; type: organism-based; conditions: in vivo, other, 264 h
[11] = tested on: Gossypium hirsutum; test: Post-emergence phytotoxicity against Gossypium hirsutum (cotton) assessed as mortality at 6.3 g a.i/10 a applied 11 days after germination as foliar spray; type: organism-based; conditions: in vivo, other, 264 h
[12] = (§3) Post-emergence phytotoxicity against Glycine max (soybean) assessed as mortality at 1.6 g a.i/10 a applied 11 days after germination as foliar spray; type: organism-based; conditions: in vivo, 1.6 g a.i/10 a
[13] = (§4) Post-emergence phytotoxicity against Zea mays (maize) assessed as mortality at 1.6 g a.i/10 a applied 11 days after germination as foliar spray; type: organism-based; conditions: in vivo, 1.6 g a.i/10 a
[14] = tested on: Cyperus iria; test: Pre-emergence herbicidal activity against Cyperus iria assessed as growth inhibition at 25 g a.i/10 a; type: functional, organism-based
[15] = tested on: Chenopodium album; test: Pre-emergence herbicidal activity against Chenopodium album assessed as growth inhibition at 25 g a.i/10 a; type: functional, organism-based
[16] = tested on: Amaranthus retroflexus; test: Pre-emergence herbicidal activity against Amaranthus retroflexus assessed as growth inhibition at 25 g a.i/10 a; type: functional, organism-based
[17] = tested on: Persicaria nodosa; test: Pre-emergence herbicidal activity against Persicaria nodosa assessed as growth inhibition at 25 g a.i/10 a; type: functional, organism-based
[18] = tested on: Digitaria sanguinalis; test: Pre-emergence herbicidal activity against Digitaria sanguinalis (hairy crabgrass) assessed as growth inhibition at 25 g a.i/10 a; type: functional, organism-based
[19] = tested on: Echinochloa crus-galli; test: Pre-emergence herbicidal activity against Echinochloa crus-galli (barnyard grass) assessed as growth inhibition at 25 g a.i/10 a; type: functional, organism-based
[20] = tested on: Cyperus iria; test: Post-emergence herbicidal activity against Cyperus iria assessed as growth inhibition at 25 g a.i/10 a applied 11 days after germination as foliar spray; type: functional, organism-based
[21] = tested on: Chenopodium album; test: Post-emergence herbicidal activity against Chenopodium album assessed as growth inhibition at 25 g a.i/10 a applied 11 days after germination as foliar spray; type: functional, organism-based
[22] = tested on: Amaranthus retroflexus; test: Post-emergence herbicidal activity against Amaranthus retroflexus assessed as growth inhibition at 25 g a.i/10 a applied 11 days after germination as foliar spray; type: functional, organism-based
[23] = tested on: Persicaria nodosa; test: Post-emergence herbicidal activity against Persicaria nodosa assessed as growth inhibition at 25 g a.i/10 a applied 11 days after germination as foliar spray; type: functional, organism-based
[24] = tested on: Digitaria sanguinalis; test: Post-emergence herbicidal activity against Digitaria sanguinalis (hairy crabgrass) assessed as growth inhibition at 25 g a.i/10 a applied 11 days after germination as foliar spray; type: functional, organism-based
[25] = tested on: Echinochloa crus-galli; test: Post-emergence herbicidal activity against Echinochloa crus-galli (barnyard grass) assessed as growth inhibition at 25 g a.i/10 a applied 11 days after germination as foliar spray; type: functional, organism-based
[26] = tested on: Xanthium strumarium; test: Pre-emergence herbicidal activity against Xanthium strumarium (cocklebur) assessed as mortality at 1.6 g a.i/10 a; type: functional; conditions: Xanthium strumarium, pre-emergence
[27] = tested on: Xanthium strumarium; test: Pre-emergence herbicidal activity against Xanthium strumarium (cocklebur) assessed as mortality at 6.3 g a.i/10 a; type: functional; conditions: Xanthium strumarium, pre-emergence
[28] = tested on: Ipomoea lacunosa; test: Pre-emergence herbicidal activity against Ipomoea lacunosa assessed as mortality at 1.6 g a.i/10 a; type: functional; conditions: Ipomoea lacunosa, pre-emergence
[29] = tested on: Gossypium hirsutum; test: Post-emergence phytotoxicity against Gossypium hirsutum (cotton) assessed as mortality per 10 acre; type: organism-based; conditions: in vivo
[30] = tested on: Echinochloa crus-galli; test: Pre-emergence herbicidal activity against Echinochloa crus-galli (barnyard grass) assessed as mortality at 6.3 g a.i/10 a; type: functional
[31] = tested on: Ipomoea lacunosa; test: Post-emergence herbicidal activity against Ipomoea lacunosa assessed as mortality at 1.6 g a.i/10 a applied 11 days after germination as foliar spray; type: functional; conditions: 264 h
[32] = as §1; type: organism-based; conditions: in vivo, 6.3 g a.i/10 a, read-out: mortality
[33] = tested on: Echinochloa crus-galli; test: Post-emergence herbicidal activity against Echinochloa crus-galli (barnyard grass) assessed as mortality at 6.3 g a.i/10 a applied 11 days after germination as foliar spray; type: functional; conditions: 264 h
[34] = tested on: Ipomoea lacunosa; test: Pre-emergence herbicidal activity against Ipomoea lacunosa assessed as mortality per 10 acre; type: functional
[35] = tested on: Persicaria nodosa; test: Pre-emergence herbicidal activity against Persicaria nodosa assessed as mortality per 10 acre; type: functional
[36] = tested on: Amaranthus retroflexus; test: Pre-emergence herbicidal activity against Amaranthus retroflexus assessed as mortality per 10 acre; type: functional
[37] = tested on: Echinochloa crus-galli; test: Pre-emergence herbicidal activity against Echinochloa crus-galli (barnyard grass) assessed as mortality per 10 acre; type: functional
[38] = tested on: Gossypium hirsutum; test: Pre-emergence phytotoxicity against Gossypium hirsutum (cotton) assessed as mortality per 10 acre; type: organism-based; conditions: in vivo
[39] = tested on: Xanthium strumarium; test: Post-emergence herbicidal activity against Xanthium strumarium (cocklebur) assessed as mortality per 10 acre; type: functional
[40] = tested on: Ipomoea lacunosa; test: Post-emergence herbicidal activity against Ipomoea lacunosa assessed as mortality per 10 acre; type: functional
[41] = tested on: Persicaria nodosa; test: Post-emergence herbicidal activity against Persicaria nodosa assessed as mortality per 10 acre; type: functional
[42] = tested on: Amaranthus retroflexus; test: Post-emergence herbicidal activity against Amaranthus retroflexus assessed as mortality per 10 acre; type: functional
[43] = tested on: Echinochloa crus-galli; test: Post-emergence herbicidal activity against Echinochloa crus-galli (barnyard grass) assessed as mortality per 10 acre; type: functional
[44] = tested on: Xanthium strumarium; test: Pre-emergence herbicidal activity against Xanthium strumarium (cocklebur) assessed as mortality per 10 acre; type: functional
[45] = tested on: Abutilon theophrasti; test: Pre-emergence herbicidal activity against Abutilon theophrasti (velvetleaf) assessed as mortality at 6.3 g a.i/10 a; type: functional; conditions: Abutilon theophrasti, pre-emergence
[46] = tested on: Zea mays; test: Pre-emergence phytotoxicity against Zea mays (maize) assessed as mortality at 6.3 g a.i/10 a; type: organism-based; conditions: in vivo, other
[47] = as §2; type: organism-based; conditions: in vivo, 1.6 g a.i/10 a
[48] = tested on: Glycine max; test: Post-emergence phytotoxicity against Glycine max (soybean) assessed as mortality at 6.3 g a.i/10 a applied 11 days after germination as foliar spray; type: organism-based; conditions: in vivo, other, 264 h
[49] = tested on: Glycine max; test: as §3; type: organism-based; conditions: in vivo, other, 264 h
[50] = tested on: Zea mays; test: as §4; type: organism-based; conditions: in vivo, other, 264 h
[51] = tested on: Zea mays; test: Post-emergence phytotoxicity against Zea mays (maize) assessed as mortality at 6.3 g a.i/10 a applied 11 days after germination as foliar spray; type: organism-based; conditions: in vivo, other, 264 h
[52] = tested on: Echinochloa crus-galli; test: Pre-emergence herbicidal activity against Echinochloa crus-galli (barnyard grass) assessed as mortality at 1.6 g a.i/10 a; type: functional

COc1cc(OC)nc(Oc2cccc(C(F)(F)F)c2C(=O)O)n1
mortality at 63 g/ha [1]: > 90%
mortality at 63 g/ha [2]: > 90%
mortality at 16 g/ha [3]: > 90%
mortality at 63 g/ha [4]: > 90%
Activity [5]: Non-toxic
Activity [6]: Non-toxic
Activity [7]: Toxic
Activity [8]: Toxic
mortality ([9]; read-out: mortality): > 90%
Activity [10]: Toxic
Activity [11]: Toxic
mortality at 264 h [12]: > 90%
mortality at 264 h [13]: > 90%
growth inhibition (GI) [14]: Active
growth inhibition (GI) [15]: Active
growth inhibition (GI) [16]: Active
growth inhibition (GI) [17]: Active
growth inhibition (GI) [18]: Active
growth inhibition (GI) [19]: Active
growth inhibition (GI) [20]: Active
growth inhibition (GI) [21]: Active
growth inhibition (GI) [22]: Active
growth inhibition (GI) [23]: Active
growth inhibition (GI) [24]: Active
growth inhibition (GI) [25]: Active
mortality at 16 g/ha [26]: < 5%
mortality at 63 g/ha [27]: < 5%
mortality at 16 g/ha [28]: < 5%

COc1cc(OC)nc(Oc2cccc(Br)c2C(=O)O)n1
ED20 [29]: 0.2 gAi
mortality at 63 g/ha ([30]; Echinochloa crus-galli, pre-emergence): > 90%
mortality at 63 g/ha [1]: > 90%
mortality at 16 g/ha [31]: > 90%
mortality at 63 g/ha [2]: > 90%
mortality at 16 g/ha [3]: > 90%
mortality at 63 g/ha [4]: > 90%
Activity [5]: Non-toxic
Activity [6]: Non-toxic
Activity [7]: Toxic
mortality [32]: > 90%
mortality ([9]; read-out: mortality): > 90%
Activity [10]: Toxic
Activity [11]: Toxic
mortality at 264 h [12]: > 90%
mortality at 264 h [13]: > 90%
mortality at 63 g/ha [33]: > 90%
growth inhibition (GI) [14]: Active
growth inhibition (GI) [15]: Active
growth inhibition (GI) [16]: Active
growth inhibition (GI) [17]: Active
growth inhibition (GI) [18]: Active
growth inhibition (GI) [19]: Active
growth inhibition (GI) [20]: Active
growth inhibition (GI) [21]: Active
growth inhibition (GI) [22]: Active
growth inhibition (GI) [23]: Active
growth inhibition (GI) [24]: Active
growth inhibition (GI) [25]: Active
ED90 [34]: 25 gAi
ED90 [35]: 0.4 gAi
ED90 [36]: 0.4 gAi
ED90 [37]: 1.5 gAi
ED20 [38]: Toxic
ED90 [39]: 1.5 gAi
ED90 [40]: 0.8 gAi
ED90 [41]: 0.2 gAi
ED90 [42]: 0.2 gAi
ED90 [43]: inactive
mortality at 16 g/ha [28]: < 5%
ED90 [44]: 25 gAi
mortality at 63 g/ha [45]: > 90%

COc1cc(OC)nc(Sc2cccc(OC)c2C(=O)O)n1
Activity [30]: >90%
mortality at 63 g/ha [4]: > 90%
Activity [5]: Non-toxic
Activity [6]: Non-toxic
Activity [7]: Toxic
Activity [8]: Toxic
mortality ([9]; read-out: Activity): > 90%
Activity [46]: > 90%
mortality at 264 h [47]: < 5%
Activity [11]: Non-toxic
Activity [48]: Toxic
Activity [49]: Toxic
Activity [50]: Toxic
Activity [51]: Toxic
Activity [52]: >90%
